Reference: patent publication US9957263B2, “Bromodomain inhibitors” (AbbVie Inc., priority 2013, dated 2018)

Experiments:
BRD4 (BDII_E352-M457) = BRD4 (BDII_E352-M457) (Homo sapiens (Human), UniProt O60885); assay: TR-FRET bromodomain binding assay, BRD4 second bromodomain; conditions: His-tagged BD2, Alexa647-labeled probe 30 nM
Method in brief: (§1)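 His-tagged BRD4 BD1 (K57-E168) or BD2 at 8 nM, 1 nM Eu-anti-His antibody and Alexa647 BET-inhibitor probe (100 nM for BDI, 30 nM for BDII) in pH 6.0 phosphate buffer, 2% DMSO, compound 50 μM-0.85 nM; 1 h at RT, TR-FRET read. IC50 by 4-parameter fit, Ki from probe Kd and concentration.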

BRD4 (BDI_K57-E168) = BRD4 (BDI_K57-E168) (Homo sapiens (Human), UniProt O60885); assay: TR-FRET bromodomain binding assay, BRD4 first bromodomain; conditions: His-tagged BD1, Alexa647-labeled probe 100 nM
Method in brief: as §1

Ki (BRD4 (BDII_E352-M457)) [nM]	Ki (BRD4 (BDI_K57-E168)) [nM]	Structure (SMILES)
1.4	4.3	CN(C)CCCOc1ccc(CNc2cccc(Oc3ccc(S(C)(=O)=O)cc3-c3cn(C)c(=O)c4[nH]ccc34)c2)cc1 [Example 74, 4-{2-[3-({4-[3-(dimethylamino)propoxy]benzyl}amino)phenoxy]-5-(methylsulfonyl)phenyl}-6-methyl-1,6-dihydro-7H-pyrrolo[2,3-c]pyridin-7-one]
2.9	8.5	CN(C)c1cccc(CNc2cccc(Oc3ccc(S(C)(=O)=O)cc3-c3cn(C)c(=O)c4[nH]ccc34)c2)c1 [Example 75, 4-[2-(3-{[3-(dimethylamino)benzyl]amino}phenoxy)-5-(methylsulfonyl)phenyl]-6-methyl-1,6-dihydro-7H-pyrrolo[2,3-c]pyridin-7-one]
1.1	3.3	Cn1cc(-c2cc(S(C)(=O)=O)ccc2Oc2cccc(NCc3ccc4c(c3)OCCO4)c2)c2cc[nH]c2c1=O [Example 76, 4-[2-{3-[(2,3-dihydro-1,4-benzodioxin-6-ylmethyl)amino]phenoxy}-5-(methylsulfonyl)phenyl]-6-methyl-1,6-dihydro-7H-pyrrolo[2,3-c]pyridin-7-one]
2.8	11	Cn1cc(-c2cc(S(C)(=O)=O)ccc2Oc2cccc(NCC3CCOC3)c2)c2cc[nH]c2c1=O (stereo not shown) [Example 77, 6-methyl-4-[5-(methylsulfonyl)-2-{3-[(tetrahydrofuran-3-ylmethyl)amino]phenoxy}phenyl]-1,6-dihydro-7H-pyrrolo[2,3-c]pyridin-7-one]
0.6	0.9	CC(=O)Nc1ccc(CNc2cccc(Oc3ccc(S(C)(=O)=O)cc3-c3cn(C)c(=O)c4[nH]ccc34)c2)cc1 [Example 78, N-{4-[({3-[2-(6-methyl-7-oxo-6,7-dihydro-1H-pyrrolo[2,3-c]pyridin-4-yl)-4-(methylsulfonyl)phenoxy]phenyl}amino)methyl]phenyl}acetamide]
2.7	7.8	COc1ccc(CNc2cccc(Oc3ccc(S(C)(=O)=O)cc3-c3cn(C)c(=O)c4[nH]ccc34)c2)cc1 [Example 79, 4-[2-{3-[(4-methoxybenzyl)amino]phenoxy}-5-(methylsulfonyl)phenyl]-6-methyl-1,6-dihydro-7H-pyrrolo[2,3-c]pyridin-7-one]
4.6	19	Cn1cc(-c2cc(S(C)(=O)=O)ccc2Oc2cccc(NCC3CC3)c2)c2cc[nH]c2c1=O [Example 80, 4-[2-{3-[(cyclopropylmethyl)amino]phenoxy}-5-(methylsulfonyl)phenyl]-6-methyl-1,6-dihydro-7H-pyrrolo[2,3-c]pyridin-7-one]
10	35	Cn1cc(-c2cc(S(C)(=O)=O)ccc2Oc2cccc(NCCC3CCCC3)c2)c2cc[nH]c2c1=O [Example 81, 4-[2-{3-[(2-cyclopentylethyl)amino]phenoxy}-5-(methylsulfonyl)phenyl]-6-methyl-1,6-dihydro-7H-pyrrolo[2,3-c]pyridin-7-one]
8.5	39	CCS(=O)(=O)c1ccc(Oc2ccc(Cl)cc2C#CCN2CCOCC2)c(-c2cn(C)c(=O)c3[nH]ccc23)c1 [Example 82, 4-[2-{4-chloro-2-[3-(morpholin-4-yl)prop-1-yn-1-yl]phenoxy}-5-(ethylsulfonyl)phenyl]-6-methyl-1,6-dihydro-7H-pyrrolo[2,3-c]pyridin-7-one]
3.5	5.3	CCS(=O)(=O)c1ccc(Oc2ccc(Cl)cc2CCCN2CCOCC2)c(-c2cn(C)c(=O)c3[nH]ccc23)c1 [Example 83, 4-[2-{4-chloro-2-[3-(morpholin-4-yl)propyl]phenoxy}-5-(ethylsulfonyl)phenyl]-6-methyl-1,6-dihydro-7H-pyrrolo[2,3-c]pyridin-7-one]
8.9	4.7	Cn1cc(-c2cc(S(C)(=O)=O)ccc2NC2CCN(S(=O)(=O)c3ccccc3)CC2)c2cc[nH]c2c1=O [Example 84, 6-methyl-4-[5-(methylsulfonyl)-2-{[1-(phenylsulfonyl)piperidin-4-yl]amino}phenyl]-1,6-dihydro-7H-pyrrolo[2,3-c]pyridin-7-one]
60	8	CN(C)CC(=O)N1CCC(Nc2ccc(S(C)(=O)=O)cc2-c2cn(C)c(=O)c3[nH]ccc23)CC1 [Example 85, 4-[2-({1-[(dimethylamino)acetyl]piperidin-4-yl}amino)-5-(methylsulfonyl)phenyl]-6-methyl-1,6-dihydro-7H-pyrrolo[2,3-c]pyridin-7-one]
75	24	CSCCCN1CCC(Nc2ccc(S(C)(=O)=O)cc2-c2cn(C)c(=O)c3[nH]ccc23)CC1 [Example 86, 6-methyl-4-[2-({1-[3-(methylsulfanyl)propyl]piperidin-4-yl}amino)-5-(methylsulfonyl)phenyl]-1,6-dihydro-7H-pyrrolo[2,3-c]pyridin-7-one]
34	21	CC(=O)Nc1ccc(CN2CCC(Nc3ccc(S(C)(=O)=O)cc3-c3cn(C)c(=O)c4[nH]ccc34)CC2)cc1 [Example 87, N-{4-[(4-{[2-(6-methyl-7-oxo-6,7-dihydro-1H-pyrrolo[2,3-c]pyridin-4-yl)-4-(methylsulfonyl)phenyl]amino}piperidin-1-yl)methyl]phenyl}acetamide]
23	4.9	COc1cc(CN2CCC(Nc3ccc(S(C)(=O)=O)cc3-c3cn(C)c(=O)c4[nH]ccc34)CC2)cc(OC)c1OC [Example 88, 6-methyl-4-[5-(methylsulfonyl)-2-{[1-(3,4,5-trimethoxybenzyl)piperidin-4-yl]amino}phenyl]-1,6-dihydro-7H-pyrrolo[2,3-c]pyridin-7-one]
44	22	Cn1cc(-c2cc(S(C)(=O)=O)ccc2NC2CCN(Cc3cccs3)CC2)c2cc[nH]c2c1=O [Example 89, 6-methyl-4-[5-(methylsulfonyl)-2-{[1-(thiophen-2-ylmethyl)piperidin-4-yl]amino}phenyl]-1,6-dihydro-7H-pyrrolo[2,3-c]pyridin-7-one]
25	14	CN(C)CCCOc1ccc(CN2CCC(Nc3ccc(S(C)(=O)=O)cc3-c3cn(C)c(=O)c4[nH]ccc34)CC2)cc1 [Example 90, 4-{2-[(1-{4-[3-(dimethylamino)propoxy]benzyl}piperidin-4-yl)amino]-5-(methylsulfonyl)phenyl}-6-methyl-1,6-dihydro-7H-pyrrolo[2,3-c]pyridin-7-one]
7.5	5	CSCC(=O)N1CCC(Nc2ccc(S(C)(=O)=O)cc2-c2cn(C)c(=O)c3[nH]ccc23)CC1 [Example 91, 6-methyl-4-[2-({1-[(methylsulfanyl)acetyl]piperidin-4-yl}amino)-5-(methylsulfonyl)phenyl]-1,6-dihydro-7H-pyrrolo[2,3-c]pyridin-7-one]
33	15	COc1ccc(CCC(=O)N2CCC(Nc3ccc(S(C)(=O)=O)cc3-c3cn(C)c(=O)c4[nH]ccc34)CC2)c(OC)c1OC [Example 92, 6-methyl-4-[5-(methylsulfonyl)-2-({1-[3-(2,3,4-trimethoxyphenyl)propanoyl]piperidin-4-yl}amino)phenyl]-1,6-dihydro-7H-pyrrolo[2,3-c]pyridin-7-one]
24	19	Cn1cc(-c2cc(S(C)(=O)=O)ccc2NC2CCN(C(=O)C3(C(N)=O)CC3)CC2)c2cc[nH]c2c1=O [Example 93, 1-[(4-{[2-(6-methyl-7-oxo-6,7-dihydro-1H-pyrrolo[2,3-c]pyridin-4-yl)-4-(methylsulfonyl)phenyl]amino}piperidin-1-yl)carbonyl]cyclopropanecarboxamide]
20	30	COC1CCC(C(=O)N2CCC(Nc3ccc(S(C)(=O)=O)cc3-c3cn(C)c(=O)c4[nH]ccc34)CC2)CC1 (stereo not shown) [Example 94, 4-[2-({1-[(4-methoxycyclohexyl)carbonyl]piperidin-4-yl}amino)-5-(methylsulfonyl)phenyl]-6-methyl-1,6-dihydro-7H-pyrrolo[2,3-c]pyridin-7-one]
16	22	COCC(=O)N1CCC(Nc2ccc(S(C)(=O)=O)cc2-c2cn(C)c(=O)c3[nH]ccc23)CC1 [Example 95, 4-[2-{[1-(methoxyacetyl)piperidin-4-yl]amino}-5-(methylsulfonyl)phenyl]-6-methyl-1,6-dihydro-7H-pyrrolo[2,3-c]pyridin-7-one]
21	17	CN1CCN(CC(=O)N2CCC(Nc3ccc(S(C)(=O)=O)cc3-c3cn(C)c(=O)c4[nH]ccc34)CC2)CC1 [Example 96, 6-methyl-4-[2-({1-[(4-methylpiperazin-1-yl)acetyl]piperidin-4-yl}amino)-5-(methylsulfonyl)phenyl]-1,6-dihydro-7H-pyrrolo[2,3-c]pyridin-7-one]
28	10	Cn1cc(-c2cc(S(C)(=O)=O)ccc2NC2CCN(C(=O)CN3CCCC3)CC2)c2cc[nH]c2c1=O [Example 97, 6-methyl-4-[5-(methylsulfonyl)-2-{[1-(pyrrolidin-1-ylacetyl)piperidin-4-yl]amino}phenyl]-1,6-dihydro-7H-pyrrolo[2,3-c]pyridin-7-one]
20	14	COCCOCC(=O)N1CCC(Nc2ccc(S(C)(=O)=O)cc2-c2cn(C)c(=O)c3[nH]ccc23)CC1 [Example 98, 4-[2-({1-[(2-methoxyethoxy)acetyl]piperidin-4-yl}amino)-5-(methylsulfonyl)phenyl]-6-methyl-1,6-dihydro-7H-pyrrolo[2,3-c]pyridin-7-one]
28	12	Cn1cc(-c2cc(S(C)(=O)=O)ccc2NC2CCN(C(=O)CCN3CCOCC3)CC2)c2cc[nH]c2c1=O [Example 99, 6-methyl-4-[5-(methylsulfonyl)-2-({1-[3-(morpholin-4-yl)propanoyl]piperidin-4-yl}amino)phenyl]-1,6-dihydro-7H-pyrrolo[2,3-c]pyridin-7-one]
